The record followed here is patent US20240335431A1, “1-H-PYRROLO[2,3-c]PYRIDINE COMPOUNDS” (Acerta Pharma B.V., priority 2023, published 2024).

Where two headings read alike, the source gives them in different places.

One test relates to HEL cells. As to the kind of experiment: Proliferation assay, HEL control cell line (CellTiter-Glo, 7 days). Format: cell-based, human. The method in brief:
(§1)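 Cells seeded at 125 (MOLM-13), 300 (MV4;11), 75 (OCI-AML3) or 200 (HEL) per well were exposed to 3.16-fold compound dilutions (0.1% DMSO) for 7 days at 37° C. Viability by CellTiter-Glo luminescence, normalized to DMSO (100%) and day-0 plate (0%); IC50 from one-site dose-response fit.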

For the next test, the system named is OCI-AML3 cells. As to the kind of experiment: Proliferation assay, OCI-AML3 (CellTiter-Glo, 7 days). Format: cell-based, human. The essentials: as §1
On the technique in general: Cellular ATP, detected with luciferase, serves as a proxy for viable cell number.

A further test concerns the target muscarinic M2 receptor (Homo sapiens (Human), UniProt P08172). As to the kind of experiment: Muscarinic M2 receptor binding assay (assay 1). Particulars: [3H]AF-DX 384 2 nM, Cheng Prusoff. How it is done:
Cell membrane homogenates (60 μg protein) were incubated for 60 minutes at 22° C. with 2 nM [3H]AF-DX 384 in the absence or presence of the test compound in a buffer containing 50 mM Tris-HCl (pH 7.4), 120 mM NaCl, 5 mM KCl, 5 mM MgCl2, and 1 mM EDTA. Nonspecific binding was determined in the presence of 1 μM atropine. Following incubation, the samples were filtered rapidly under vacuum through glass fiber filters (GF/B, Packard) presoaked with 0.3% PEI and rinsed several times with ice-cold 50 mM Tris-HCl using a 96-sample cell harvester (Unifilter, Packard). The filters were dried then counted for radioactivity in a scintillation counter (Topcount, Packard) using a scintillation cocktail (Microscint 0, Packard). The results were expressed as a percent inhibition of the control radioligand specific binding, from which the Ki was calculated. Data were analyzed using software developed at Cerep (Hill software) and validated by comparison with data generated by the commercial software SigmaPlot®4.0 for Windows® (© 1997 by SPSS Inc.). The inhibition constant, Ki, was calculated using the Cheng Prusoff equation:
where L=concentration of ligand in the assay, and Kd=affinity of the ligand for the receptor. The standard reference compound was methoctramine, which was tested in each experiment at several concentrations to obtain a competition curve from which its IC50 was calculated.

Sequence of muscarinic M2 receptor (P08172 whole entry): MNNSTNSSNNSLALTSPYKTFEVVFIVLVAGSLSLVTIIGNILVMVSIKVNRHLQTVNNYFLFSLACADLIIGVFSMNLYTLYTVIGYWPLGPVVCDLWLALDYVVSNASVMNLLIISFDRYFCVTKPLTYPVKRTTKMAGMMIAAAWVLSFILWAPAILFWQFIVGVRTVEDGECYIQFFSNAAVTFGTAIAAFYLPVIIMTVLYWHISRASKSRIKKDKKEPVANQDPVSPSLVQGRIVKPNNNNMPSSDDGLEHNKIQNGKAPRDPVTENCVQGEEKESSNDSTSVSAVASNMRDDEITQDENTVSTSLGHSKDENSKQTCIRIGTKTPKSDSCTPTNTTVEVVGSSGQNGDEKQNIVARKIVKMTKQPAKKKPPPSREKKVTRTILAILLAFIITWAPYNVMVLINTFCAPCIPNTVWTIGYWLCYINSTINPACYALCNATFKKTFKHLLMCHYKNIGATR

`CC(C)N(C(=O)c1cc(F)ccc1-n1cc(C(=O)C2CCN(C(=O)[C@H]3NC[C@@H]4CC[C@@H]43)CC2)c2ccncc21)C(C)C` (relative stereo) [Example 25, rel-2-(3-(1-((1R,2R,5S)-3-Azabicyclo[3.2.0]heptane-2-carbonyl)piperidine-4-carbonyl)-1H-pyrrolo[2,3-c]pyridin-1-yl)-5-fluoro-N,N-diisopropylbenzamide]: the IC50 in the test with HEL cells (Homo sapiens, HEL, 168 h) was more than 10 µM; in the test on OCI-AML3 cells (Homo sapiens, OCI-AML-3, 168 h), 37 nM. Also, the Ki at muscarinic M2 receptor was found to be 1.9 µM.

As to `CCN(C(=O)c1cc(F)ccc1-n1c(C)c(C(=O)C2CCN(C(=O)[C@@H]3CCC4(CC4)N3)CC2)c2ccncc21)C(C)C` (single isomer, unassigned) [Example 49-2], the IC50 is more than 10 µM in the test with HEL cells and more than 233 nM in the test on OCI-AML3 cells (Homo sapiens, OCI-AML-3, 168 h). At muscarinic M2 receptor, the inhibitory constant (Ki) was 27.4 µM.

On to `CCN(C(=O)c1cc(F)ccc1-n1c(C)c(C(=O)C2CCN(C(=O)[C@@H]3CCC(C)(C)N3)CC2)c2ccncc21)C(C)C` (single isomer, unassigned) [Example 50-2], for which the IC50 in the test on HEL cells was more than 10 µM; with OCI-AML3 cells (Homo sapiens, OCI-AML-3, 168 h), 63 nM. Moreover, the Ki on muscarinic M2 receptor came out at 34.3 µM.

Consider `Cc1c(C(=O)[C@@H]2CCN(C(=O)[C@H]3NC[C@@H]4C[C@@H]43)[C@@H](C)C2)c2ccncc2n1-c1ccc(F)cc1C(=O)N(CC(F)(F)F)C(C)C` (single isomer, unassigned) [Example 53-3, 2-(3-((2R*,4S*)-1-((1S,2S,5R)-3-Azabicyclo[3.1.0]hexane-2-carbonyl)-2-methylpiperidine-4-carbonyl)-2-methyl-1H-pyrrolo[2,3-c]pyridin-1-yl)-5-fluoro-N-isopropyl-N-(2,2,2-trifluoroethyl)benzamide], for which the IC50 in the test on HEL cells is more than 10 µM; with OCI-AML3 cells it was 14 nM. In addition, the affinity on muscarinic M2 receptor, expressed as Ki, was 19.8 µM.

Regarding `Cc1c(C(=O)C2CCN(C(=O)[C@H]3NC[C@@H]4C[C@@H]43)CC2)c2ccncc2n1-c1ccc(F)cc1C(=O)N(C(C)C)[C@H](C)C(F)(F)F` (single isomer, unassigned) [Example 57-1], the IC50 in the test on HEL cells (Homo sapiens, HEL, 168 h) was more than 10 µM; in the test on OCI-AML3 cells (Homo sapiens, OCI-AML-3, 168 h) it was 77 nM. The Ki on muscarinic M2 receptor was more than 100 µM.

In the case of `Cc1c(C(=O)[C@@H]2CCN(C(=O)[C@@H]3CC[C@@H](C)N3)[C@@H](C)C2)c2ccncc2n1-c1ccc(F)cc1C(=O)N(C(C)C)C(C)C` (stereo in doubt) [Example 64, 5-Fluoro-N,N-diisopropyl-2-(2-methyl-3-((2S,4RS)-2-methyl-1-((2S,5R)-5-methylpyrrolidine-2-carbonyl)piperidine-4-carbonyl)-1H-pyrrolo[2,3-c]pyridin-1-yl)benzamide], the IC50 with HEL cells (Homo sapiens, HEL, 168 h) was more than 10 µM; in the test with OCI-AML3 cells (Homo sapiens, OCI-AML-3, 168 h), 313 nM.

Take `CCN(C(=O)c1cc(F)ccc1-n1c(C)c(C(=O)[C@@H]2CCN(C(=O)[C@@H]3CC[C@@H](C)N3)[C@@H](C)C2)c2ccncc21)C(C)C` (stereo in doubt) [Example 65, N-Ethyl-5-fluoro-N-isopropyl-2-(2-methyl-3-((2S,4RS)-2-methyl-1-((2S,5R)-5-methylpyrrolidine-2-carbonyl)piperidine-4-carbonyl)-1H-pyrrolo[2,3-c]pyridin-1-yl)benzamide]: the IC50 is more than 10 µM in the test with HEL cells (Homo sapiens, HEL, 168 h) and 126 nM in the test with OCI-AML3 cells (Homo sapiens, OCI-AML-3, 168 h).

As to `CC(C)N(C(=O)c1cc(F)ccc1-n1cc(C(=O)[C@H]2CCN(C[C@H]3CC[C@H](NS(C)(=O)=O)CC3)C2)c2ccncc21)C(C)C` [Example 1, 5-Fluoro-N,N-diisopropyl-2-(3-((S)-1-(((1r,4S)-4-(methylsulfonamido)-cyclohexyl)methyl)pyrrolidine-3-carbonyl)-1H-pyrrolo[2,3-c]pyridin-1-yl)benzamide], the IC50 was more than 10 µM with HEL cells (Homo sapiens, HEL, 168 h) and 313 nM in the test with OCI-AML3 cells (Homo sapiens, OCI-AML-3, 168 h). Further, the affinity on muscarinic M2 receptor corresponds to a Ki of 8.1 µM.

Regarding `CC(C)N(C(=O)c1cc(F)ccc1-n1cc(C(=O)[C@@H]2CCN(C(=O)[C@H]3N[C@@H]4CC[C@H]3C4)C2)c2ccncc21)C(C)C` [Example 3, 2-(3-((R)-1-((1R,3S,4S)-2-Azabicyclo[2.2.1]heptane-3-carbonyl)pyrrolidine-3-carbonyl)-1H-pyrrolo[2,3-c]pyridin-1-yl)-5-fluoro-N,N-diisopropylbenzamide], the IC50 is more than 10 µM in the test with HEL cells (Homo sapiens, HEL, 168 h) and 113 nM with OCI-AML3 cells (Homo sapiens, OCI-AML-3, 168 h).

Consider `CC(C)N(C(=O)c1cc(F)ccc1-n1cc(C(=O)[C@@H]2CCN(C[C@H]3CC[C@H](NS(C)(=O)=O)CC3)C2)c2ccncc21)C(C)C` [Example 4, 5-Fluoro-N,N-diisopropyl-2-(3-((R)-1-(((1r,4R)-4-(methylsulfonamido)-cyclohexyl)methyl)pyrrolidine-3-carbonyl)-1H-pyrrolo[2,3-c]pyridin-1-yl)benzamide], for which the IC50 with HEL cells (Homo sapiens, HEL, 168 h) is more than 10 µM; in the test with OCI-AML3 cells (Homo sapiens, OCI-AML-3, 168 h), 223 nM.

For `CCN(C(=O)c1cc(F)ccc1-n1cc(C(=O)C2CN(C(=O)[C@H]3N[C@@H]4CC[C@H]3C4)C2)c2ccncc21)C(C)C` [Example 8, 2-(3-(1-((1R,3S,4S)-2-Azabicyclo[2.2.1]heptane-3-carbonyl)azetidine-3-carbonyl)-1H-pyrrolo[2,3-c]pyridin-1-yl)-N-ethyl-5-fluoro-N-isopropylbenzamide], the IC50 is more than 10 µM in the test on HEL cells (Homo sapiens, HEL, 168 h) and 193 nM with OCI-AML3 cells (Homo sapiens, OCI-AML-3, 168 h). At muscarinic M2 receptor, this molecule showed a Ki of 8 µM.

`CCN(C(=O)c1cc(F)ccc1-n1cc(C(=O)C2CN(C(=O)[C@H]3NC4CCC3CC4)C2)c2ccncc21)C(C)C` [Example 9, (S)-2-(3-(1-(2-Azabicyclo[2.2.2]octane-3-carbonyl)azetidine-3-carbonyl)-1H-pyrrolo[2,3-c]pyridin-1-yl)-N-ethyl-5-fluoro-N-isopropylbenzamide]: the IC50 with HEL cells (Homo sapiens, HEL, 168 h) is more than 10 µM; in the test on OCI-AML3 cells (Homo sapiens, OCI-AML-3, 168 h) it was 225 nM.

For the molecule `CC(C)c1cnccc1-c1cc(F)ccc1-n1cc(C(=O)C2CN(C(=O)[C@H]3N[C@@H]4CC[C@H]3C4)C2)c2ccncc21.O=CO` [Example 11, (1-((1R,3S,4S)-2-Azabicyclo[2.2.1]heptane-3-carbonyl)azetidin-3-yl)(1-(4-fluoro-2-(3-isopropylpyridin-4-yl)phenyl)-1H-pyrrolo[2,3-c]pyridin-3-yl)methanone 1·formic acid], the IC50 in the test on HEL cells (Homo sapiens, HEL, 168 h) was more than 10 µM; with OCI-AML3 cells (Homo sapiens, OCI-AML-3, 168 h), 51 nM. For the same molecule, the affinity at muscarinic M2 receptor, expressed as Ki, was 5 µM.

In the case of `CC(C)(F)c1ncccc1-c1cc(F)ccc1-n1cc(C(=O)C2CN(C(=O)[C@H]3N[C@@H]4CC[C@H]3C4)C2)c2ccncc21` [Example 13, (1-((1R,3S,4S)-2-Azabicyclo[2.2.1]heptane-3-carbonyl)azetidin-3-yl)(1-(4-fluoro-2-(2-(2-fluoropropan-2-yl)pyridin-3-yl)phenyl)-1H-pyrrolo[2,3-c]pyridin-3-yl)methanone], the IC50 is more than 10 µM with HEL cells (Homo sapiens, HEL, 168 h) and 37 nM with OCI-AML3 cells (Homo sapiens, OCI-AML-3, 168 h). For the same molecule, the affinity on muscarinic M2 receptor corresponds to a Ki of 9.7 µM.

For the molecule `CC(C)N(C(=O)c1cc(F)ccc1-n1cc(C(=O)C2CN(C(=O)[C@H]3N[C@@H]4CC[C@H]3C4)C2)c2ccnc(F)c21)C(C)C` [Example 15, 2-(3-(1-((1R,3S,4S)-2-Azabicyclo[2.2.1]heptane-3-carbonyl)azetidine-3-carbonyl)-7-fluoro-1H-pyrrolo[2,3-c]pyridin-1-yl)-5-fluoro-N,N-diisopropylbenzamide], the IC50 in the test with HEL cells (Homo sapiens, HEL, 168 h) was more than 10 µM; in the test on OCI-AML3 cells (Homo sapiens, OCI-AML-3, 168 h), 103 nM. The Ki at muscarinic M2 receptor was 13.6 µM.

Take `CC(C)N(C(=O)c1cc(F)ccc1-n1cc(C(=O)C2CCN(C[C@H]3CC[C@H](NS(C)(=O)=O)CC3)CC2)c2ccncc21)C(C)C` [Example 17, 5-Fluoro-N,N-diisopropyl-2-(3-(1-(((1r,4r)-4-(methylsulfonamido)cyclohexyl)-methyl)piperidine-4-carbonyl)-1H-pyrrolo[2,3-c]pyridin-1-yl)benzamide]: the IC50 with HEL cells (Homo sapiens, HEL, 168 h) is more than 10 µM; with OCI-AML3 cells (Homo sapiens, OCI-AML-3, 168 h), 356 nM.

As for `CC(C)N(C(=O)c1cc(F)ccc1-n1cc(C(=O)C2CCN(C(=O)[C@@H]3CCC4(CC4)N3)CC2)c2ccncc21)C(C)C` [Example 24, (S)-2-(3-(1-(4-Azaspiro[2.4]heptane-5-carbonyl)piperidine-4-carbonyl)-1H-pyrrolo[2,3-c]pyridin-1-yl)-5-fluoro-N,N-diisopropylbenzamide], the IC50 with HEL cells (Homo sapiens, HEL, 168 h) is more than 10 µM; with OCI-AML3 cells (Homo sapiens, OCI-AML-3, 168 h), 21 nM. Further, at muscarinic M2 receptor, the affinity corresponds to a Ki of 1.2 µM.

As for `CC(C)N(C(=O)c1cc(F)ccc1-n1cc(C(=O)C2CCN(C(=O)[C@@H]3CC4(CC4)CN3)CC2)c2ccncc21)C(C)C` [Example 26, (S)-2-(3-(1-(5-Azaspiro[2.4]heptane-6-carbonyl)piperidine-4-carbonyl)-1H-pyrrolo[2,3-c]pyridin-1-yl)-5-fluoro-N,N-diisopropylbenzamide], the IC50 was more than 10 µM in the test on HEL cells (Homo sapiens, HEL, 168 h) and 140 nM with OCI-AML3 cells (Homo sapiens, OCI-AML-3, 168 h). The molecule further gave a Ki at muscarinic M2 receptor of 2.6 µM.

As to `CCN(C(=O)c1cc(F)ccc1-n1cc(C(=O)C2CCN(C(=O)[C@H]3N[C@H]4C[C@@H]3[C@@H](F)C4)CC2)c2ccncc21)C(C)C` [Example 30, N-Ethyl-5-fluoro-2-(3-(1-((1S,3S,4S,5S)-5-fluoro-2-azabicyclo[2.2.1]heptane-3-carbonyl)piperidine-4-carbonyl)-1H-pyrrolo[2,3-c]pyridin-1-yl)-N-isopropylbenzamide], the IC50 in the test with HEL cells (Homo sapiens, HEL, 168 h) was more than 10 µM; in the test with OCI-AML3 cells (Homo sapiens, OCI-AML-3, 168 h), 59 nM.

What is called IC50 is the concentration that inhibits the measured activity by half. High values mean lower potency, low ones higher potency. For orientation: Ki means a dissociation constant, usually derived from enzyme kinetics or from competition with a known ligand. Low readings indicate a stronger hold on the target, high ones a looser hold on the target.
